Target: T1, human chymase (Homo sapiens, UniProt P23946)
T1 sequence (P23946 22-247): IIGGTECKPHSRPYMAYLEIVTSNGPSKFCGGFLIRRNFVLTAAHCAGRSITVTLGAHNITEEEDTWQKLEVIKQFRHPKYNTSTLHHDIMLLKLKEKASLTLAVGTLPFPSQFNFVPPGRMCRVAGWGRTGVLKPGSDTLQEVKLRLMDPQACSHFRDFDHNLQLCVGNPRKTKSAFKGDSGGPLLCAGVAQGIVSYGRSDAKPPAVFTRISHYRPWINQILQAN
Experiment: Chymase inhibitory activity (Suc-Ala-Ala-Pro-Phe-pNA substrate, absorption 405 nm)
Assay type: biochemical
Details: purified human chymase, 30 minutes at 37 °C preincubation, substrate 0.5 mM
Procedure: Compound (I) was dissolved in dimethylsulfoxide (DMSO) at 10^-2 M. Concentration of DMSO for activity measurement was 1 %.
Compound (I) dissolved in DMSO and purified human chymase (Takai et al., Clinica Chimica Acta 265, 1997, 13-20) were added to a buffer (0.1M Tris-HCl, 1.8M NaCl pH8.0). After the mixture was treated for 30 minutes at 37 °C, Suc-Ala-Ala-Pro-Phe-pNA (BACHEM Feinchemikalien AG) was added at 0.5 mM as a substrate and the mixture was enzymatically reacted at 37 °C.
After the reaction, the absorption intensity (405 nm) of the solution was measured to calculate the inhibitory rate.

| Compound | IC50 |
| --- | --- |
| COc1ccccc1C[C@@H]1C(=O)N(C(=O)N[C@@H](C)c2ccccc2)[C@@H]1Oc1ccc(C(=O)O)cc1 [Compound I-130] | 1.18 nM |
| CC(=O)O[C@H]1[C@H](Cc2ccccc2)C(=O)N1C(=O)NC(C)c1ccccc1 (some centres unmarked) [Compound I-36] | 4.2 nM |
| COc1ccccc1C[C@@H]1C(=O)N(C(=O)N[C@@H](C)c2ccccc2)[C@@H]1Oc1ccc(C(=O)N2CCN(C)CC2)cc1 [Compound I-132] | 0.25 nM |
| CC(NC(=O)N1C(=O)[C@@H](Cc2ccccc2)[C@@H]1Oc1ccc(C(N)=O)cc1)c1ccccc1 (some centres unmarked) [Compound I-95] | 16 nM |
| CCOc1ccccc1C[C@@H]1C(=O)N(C(=O)NC(c2ccccc2)c2ccccc2)[C@H]1Oc1ccc(C(=O)OCCN2CCOCC2)cc1 [Compound I-150] | 5.4 nM |
| CCOc1ccccc1C[C@@H]1C(=O)N(C(=O)NC(c2ccccc2)c2ccccc2)[C@H]1Oc1ccc(C(=O)O)c(C(=O)O)c1 [Compound I-152] | 4.1 nM |
| CCCc1ccccc1C[C@@H]1C(=O)N(C(=O)NC(c2ccccc2)c2ccccc2)[C@H]1Oc1ccc(C(=O)O)cc1 [Compound I-161] | 18 nM |
| CCOc1ccccc1C[C@@H]1C(=O)N(C(=O)NC(c2ccc(F)cc2)c2ccc(F)cc2)[C@H]1Oc1ccc(C(=O)O)cc1 [Compound I-159] | 14.5 nM |
| CC[C@H](NC(=O)N1C(=O)[C@@H](Cc2ccccc2OC)[C@@H]1Oc1ccc(C(=O)O)cc1)c1ccccc1 [Compound I-115] | 18 nM |
| C[C@@H](NC(=O)N1C(=O)[C@@H](Cc2ccccc2)[C@H]1Oc1ccc(C(=O)NNc2ccccc2)cc1)c1ccccc1 [Compound I-73] | 0.92 nM |
| CCOc1ccccc1C[C@@H]1C(=O)N(C(=O)NC(c2ccccc2)c2ccccc2)[C@H]1Oc1ccc(C(=O)N2CCN(C3CCCCC3)CC2)cc1 [Compound I-145] | 10.8 nM |
| C[C@H](NC(=O)N1C(=O)[C@@H](Cc2ccccc2)[C@H]1Oc1ccc(C(=O)N2CCN(C)CC2)cc1)c1ccccc1 [Compound I-81] | 13 nM |
| CCC1(Cc2ccccc2)C(=O)N(C(=O)NC(C)c2ccccc2)C1Oc1ccc(C(=O)O)cc1 (centres unmarked) [Compound I-172] | 115 nM |
| COc1ccccc1C[C@@H]1C(=O)N(C(=O)N[C@H](C)c2ccccc2)[C@H]1Oc1ccc(C(=O)O)cc1 [Compound I-102] | 1 nM |
| COc1ccccc1C[C@@H]1C(=O)N(C(=O)N[C@H](C)c2ccccc2)[C@@H]1Oc1ccc(C(=O)N2CCN(C)CC2)cc1 [Compound I-129] | 1.02 nM |
| COc1ccccc1C[C@@H]1C(=O)N(C(=O)NC2(c3ccccc3)CC2)[C@H]1Oc1ccc(C(=O)O)cc1 [Compound I-125] | 19 nM |
| C=CCNC(=O)c1ccc(O[C@H]2[C@H](Cc3ccccc3)C(=O)N2C(=O)N[C@H](C)c2ccccc2)cc1 [Compound I-44] | 3.8 nM |
| C[C@@H](NC(=O)N1C(=O)[C@@H](Cc2ccccc2)[C@@H]1Oc1ccc(C(=O)NCc2ccccc2)cc1)c1ccccc1 [Compound I-45] | 20 nM |
| C[C@H](NC(=O)N1C(=O)[C@H](Cc2ccccc2)[C@H]1Oc1ccc(C(=O)N2CCN(C)CC2)cc1)c1ccccc1 [Compound I-89] | 18.5 nM |

| Compound | IC50 |
| --- | --- |
| C[C@@H](NC(=O)N1C(=O)[C@@H](Cc2ccccc2)[C@H]1Oc1ccc(C(=O)N[C@@H](Cc2ccccc2)C(=O)OCc2ccccc2)cc1)c1ccccc1 [Compound I-74] | 8.6 nM |
| C[C@@H](NC(=O)N1C(=O)[C@@H](Cc2ccccc2)[C@@H]1Oc1ccc(C(=O)Nc2ccccc2)cc1)c1ccccc1 [Compound I-46] | 31 nM |
| CCOc1ccccc1C[C@@H]1C(=O)N(C(=O)NC(c2ccccc2)c2ccccc2)[C@H]1Oc1ccc(C(=O)N2CCOCC2)cc1 [Compound I-148] | 0.55 nM |
| COc1ccccc1C[C@@H]1C(=O)N(C(=O)N[C@@H](C)c2ccccc2)[C@H]1Oc1ccc(C(=O)N2CCN(C)CC2)cc1 [Compound I-111] | 11 nM |
| C[C@@H](NC(=O)N1C(=O)[C@@H](Cc2ccccc2)[C@H]1Oc1ccc(C(=O)OCc2ccncc2)cc1)c1ccccc1 [Compound I-75] | 1.2 nM |
| C[C@@H](NC(=O)N1C(=O)[C@@H](Cc2ccccc2)[C@H]1Oc1ccc(C(=O)NCc2ccccc2F)cc1)c1ccccc1 [Compound I-68] | 0.68 nM |
| C[C@@H](NC(=O)N1C(=O)[C@@H](Cc2ccccc2)[C@H]1Sc1ccccc1)c1ccccc1 [Compound I-85] | 2.4 nM |
| COc1ccccc1C[C@@H]1C(=O)N(C(=O)NC(c2ccccc2)c2ccccc2)[C@H]1Oc1ccc(C(=O)O)cc1 [Compound I-126] | 2.95 nM |
| COc1ccccc1C[C@@H]1C(=O)N(C(=O)N[C@H](C)c2ccccc2)[C@H]1Oc1ccc(C(=O)N2CCN(c3ncccn3)CC2)cc1 [Compound I-107] | 0.68 nM |
| CCCC(NC(=O)N1C(=O)[C@@H](Cc2ccccc2OC)[C@@H]1Oc1ccc(C(=O)N2CCC(N3CCCCC3)CC2)cc1)c1ccc2c(c1)OCO2 (some centres unmarked) [Compound I-121] | 0.29 nM |
| C[C@@H](NC(=O)N1C(=O)[C@@H](Cc2ccccc2)[C@H]1Oc1ccc(C(=O)OCc2ccccc2)cc1)c1ccccc1 [Compound I-69] | 16.2 nM |
| C[C@@H](NC(=O)N1C(=O)[C@@H](Cc2ccccc2)[C@@H]1Oc1ccc(/C=C/C(=O)N2CCN(C)CC2)cc1)c1ccccc1 [Compound I-54] | 3.5 nM |
| C[C@@H](NC(=O)N1C(=O)[C@@H](Cc2ccccc2)[C@@H]1Oc1ccc(C(=O)N2CCC[C@@H]2C)cc1)c1ccccc1 [Compound I-41] | 1.9 nM |
| CCOc1ccccc1C[C@@H]1C(=O)N(C(=O)N[C@H](CC)c2ccccc2)[C@H]1Oc1ccc(C(=O)O)cc1 [Compound I-135] | 2.1 nM |
| CCOc1ccccc1C[C@@H]1C(=O)N(C(=O)NC(c2ccccc2)c2ccccc2)[C@H]1Oc1ccc(/C=C/C(=O)O)cc1 [Compound I-155] | 3.8 nM |
| C[C@@H](NC(=O)N1C(=O)[C@@H](Cc2ccccc2)[C@@H]1Sc1ccc(C(=O)N2CCN(C)CC2)cc1)c1ccccc1 [Compound I-58] | 5.7 nM |
| C[C@@H](NC(=O)N1C(=O)[C@@H](Cc2ccccc2)[C@@H]1Sc1ccc(C(=O)O)cc1)c1ccccc1 [Compound I-57] | 24 nM |
| C[C@@H](NC(=O)N1C(=O)[C@H](Cc2ccccc2)[C@H]1Oc1ccc(C(=O)N2CCN(C)CC2)cc1)c1ccccc1 [Compound I-87] | 0.8 nM |
| CC[C@@H](NC(=O)N1C(=O)[C@@H](Cc2ccccc2OC)[C@@H]1Oc1ccc(C(=O)O)cc1)c1ccccc1 [Compound I-113] | 0.5 nM |

| Compound | IC50 |
| --- | --- |
| CCOc1ccccc1C[C@@H]1C(=O)N(C(=O)NC(c2ccccc2)c2ccccc2)[C@H]1Oc1ccc(CC(=O)O)cc1 [Compound I-154] | 2.5 nM |
| C[C@@H](NC(=O)N1C(=O)[C@@H](Cc2ccccc2)[C@H]1Oc1ccc(C(=O)N2CCN(Cc3ccc4c(c3)OCO4)CC2)cc1)c1ccccc1 [Compound I-76] | 2.4 nM |
| C[C@@H](NC(=O)N1C(=O)[C@@H](Cc2ccccc2)[C@H]1Oc1ccc(C(=O)N[C@@H](Cc2ccccc2)C(=O)O)cc1)c1ccccc1 [Compound I-77] | 0.26 nM |
| C[C@@H](NC(=O)N1C(=O)[C@@H](Cc2ccccc2)[C@@H]1Oc1ccc(CC(=O)O)cc1)c1ccccc1 [Compound I-49] | 4.3 nM |
| C[C@@H](NC(=O)N1C(=O)[C@@H](Cc2ccccc2)[C@@H]1Oc1ccc(C(=O)N2CCOCC2)cc1)c1ccccc1 [Compound I-43] | 1.08 nM |
| C[C@@H](NC(=O)N1C(=O)[C@@H](Cc2ccccc2)[C@@H]1Oc1ccc(C(=O)OCCN(C)C)cc1)c1ccccc1 [Compound I-47] | 3 nM |
| C[C@@H](NC(=O)N1C(=O)[C@@H](Cc2ccccc2)[C@@H]1Oc1ccc(CC(=O)OCCN(C)C)cc1)c1ccccc1 [Compound I-51] | 30 nM |
| CCOc1ccccc1C[C@@H]1C(=O)N(C(=O)N[C@H](CC)c2ccccc2)[C@H]1Oc1ccc(C(=O)N2CCN(C3CCCCC3)CC2)cc1 [Compound I-137] | 3.4 nM |
| COc1ccccc1C[C@@H]1C(=O)N(C(=O)N[C@H](C)c2ccccc2)[C@H]1Oc1ccc(C(=O)N2CCN(C)CC2)cc1 [Compound I-104] | 0.19 nM |
| CCN(Cc1ccccc1)C(=O)c1ccc(O[C@@H]2[C@H](Cc3ccccc3)C(=O)N2C(=O)N[C@H](C)c2ccccc2)cc1 [Compound I-70] | 1.28 nM |
| C[C@@H](NC(=O)N1C(=O)[C@@H](Cc2ccccc2)[C@@H]1Oc1ccc(/C=C/C(=O)O)cc1)c1ccccc1 [Compound I-52] | 5.2 nM |
| COc1ccccc1C[C@@H]1C(=O)N(C(=O)N[C@H](C)c2ccccc2)[C@H]1Oc1ccc(C(=O)OCc2ccncc2)cc1 [Compound I-105] | 2.8 nM |
| C[C@@H](NC(=O)N1C(=O)[C@@H](Cc2ccccc2)[C@@H]1Oc1cccc(C(=O)N2CCN(C)CC2)c1)c1ccccc1 [Compound I-56] | 2.95 nM |
| CC(OC(=O)c1ccc(O[C@@H]2[C@H](Cc3ccccc3)C(=O)N2C(=O)N[C@H](C)c2ccccc2)cc1)c1ccccc1 (some centres unmarked) [Compound I-71] | 19 nM |
| CCC1(Cc2ccccc2)C(=O)N(C(=O)NC(C)c2ccccc2)C1Oc1ccc(C(=O)N2CCN(C)CC2)cc1 (centres unmarked) [Compound I-173] | 190 nM |
| C[C@@H](NC(=O)N1C(=O)[C@@H](Cc2ccccc2)[C@@H]1Oc1ccc(CC(=O)N2CCN(C)CC2)cc1)c1ccccc1 [Compound I-50] | 1.13 nM |
| CCOc1ccccc1C[C@@H]1C(=O)N(C(=O)NC(c2ccccc2)c2ccccc2)[C@H]1Oc1ccc(C(=O)NS(=O)(=O)c2ccccc2)cc1 [Compound I-151] | 4.6 nM |
| CCOc1ccccc1C[C@@H]1C(=O)N(C(=O)NC(c2ccc(OC)cc2)c2ccc(OC)cc2)[C@H]1Oc1ccc(C(=O)O)cc1 [Compound I-160] | 15 nM |
